Test results reported in patent publication US20170247645A1, “ENCAPSULATED FRAGRANCE MIXTURES” (Symrise AG, priority 2014, published 2017).

Columns and labels:
[1] = Odor threshold value (OTV) in air
Excerpt: The odor threshold is the threshold at which a fragrance or odorant is olfactorily perceived by an organism. The odor threshold value, OTV for short, is that minimum concentration of a particular gaseous, sensorily active substance in the surrounding medium that this lifeform is just able to perceive through its sense of smell. In the present invention, preference is given to fragrances having a (very) low odor threshold value. The lower this is, the lower the concentration at which the fragrance is then perceived.

[2] = log Kow (octanol/water partition coefficient); format: physicochemical; details: 1-octanol/water
Excerpt: In a further preferred embodiment, the individual fragrances of the fragrance mixture of the invention have a log Kow value of 1 to 10, preferably of 1.5 to 8, more preferably of 2 to 5.5.
The log Kow (octanol/water partition coefficient) is a measure of the lipophilicity of a substance. In terms of calculation, it is the partition coefficient Kow of a substance in a mixture of 1-octanol and water. Kow is greater than one when a substance has better solubility in fat-like solvents such as n-octanol, and less than one when it has better solubility in water. Correspondingly, log Kow is positive for lipophilic substances and negative for hydrophilic substances.

| Compound | OTV [1] [ppm] | log Kow [2] |
| --- | --- | --- |
| CC(C)=C[C@H]1C[C@@H](C)CCO1 [Example 1, Rose oxide] | 0.5 | 3.58 |
| CCOC(=O)[C@H]1O[C@@]1(C)c1ccccc1 [Example 2, Aldehyde C16] | 0.2 | 3 |
| CC(C)=CCC[C@@H](C)CC#N [Example 3, citronellylnitrile] | 1 | 3.55 |
| CC(C)=CCCC1=CC[C@](C)(C=O)CC1 [Example 6, Pre-cyclemone B] | 0.5 | 5.19 |
| C=CCOC(=O)COCCC(C)C [Example 7, Allyl amyl glycolate] | 0.1 | – |
| COc1nccnc1CC(C)C [Example 9, 2-Isobutyl-3-methoxypyrazine] | 0.1 | 2.86 |
| CCCCC/C=C\CCC=O [Example 10, cis-4-Decenal] | 0.2 | 3.55 |
